Test results as given in paper PMC12078333, “Pharmacokinetic evaluation and bioavailability of KPT-335 (Verdinexor) in cats” (Frontiers in Veterinary Science, 2025).
“And” between values parts separate entries of the source, which are not always exact repeats. Identical values can stand only once. Like-named read-outs stand apart in the source and are kept apart here.

Assay: Pharmacokinetics study of KPT-335 in cats (i.v. injection, p.o. capsules and tablets; UPLC-MS/MS, non-compartmental analysis)
Assay type: in vivo
Conditions: for Plasma concentration: individual cats 1-6; for AUC(0-t) / Cmax: plasma
Description: In this study, a parallel trial design was employed, 42 adult domestic cats (21 males and 21 females), aged 1 to 2 years and weighing 2.5 ± 0.25 kg. Cats were grouped by random number, with half male and female in each group, and all cats were determined to be systemically healthy during an initial screening visit 1 week prior to the experiment. They were acclimatized to the laboratory environment for 7 days before the study commenced. During this period, they were kept in solitary cages with free access to water. Cats in the fasting group were deprived of food for 12 h prior to and 2 h following drug administration, while those in the feeding group were fed twice a day. Food and water sources were consistent throughout the trail. During and at the end of the experiment, we systematically assessed the adverse reactions by recording parameters such as body weight, behavior, and coat gloss in all test cats both before and after the trial. These observations were conducted to evaluate whether any adverse reactions occurred. All procedures were reviewed and approved by the Institutional Animal Care and Use Committee of China Agricultural University (11305-23-E-002).
The UPLC-MS/MS system utilized a UPLC 1290 (Agilent) paired with a Phenomenex Kinetex C18 column (50 mm × 2.1 mm, 2.6 μm) for separation at a flow rate of 0.3 mL/min. The chromatographic mobile phase comprised water (A) and acetonitrile (B), both containing 0.1% formic acid. The gradient elution program was as follows: from 0.5 to 2.5 min, 10 to 95% B; from 2.5 to 4.5 min, 95% B; from 4.5 to 4.6 min, 95 to 10% B; and from 4.6 to 6.0 min, 10% B. The injection volume was 2 μL.
For mass spectrometry, an Agilent 6,475-LC-TQ equipped with an electrospray ion source was used. Multiple Reaction Monitoring (MRM) was selected to quantify KPT-335 in the positive ion mode. The ion transitions monitored were m/z 443.1 → 334.0 and 443.1 → 110.1 for KPT-335, and m/z 444.1 → 334.0 for the internal standard (IS). The cone voltage and collision energy were optimized for KPT-335 and the IS individually, set at 160 V and 25 eV, respectively. The optimized parameters for the instrument included an ion source temperature of 350°C, solvent removal temperature of 320°C, capillary voltage of 3.0 kV, and a solvent gas flow rate of 300 L/h.
The method was developed based on prior research conducted in the laboratory ([16]) and validated in accordance with international guidelines ([17]). The calibration concentration range for KPT-335 spanned from 0.5 to 100 ng/mL, with a lower limit of quantification (LLOQ) set at 0.5 ng/mL. The squared correlation coefficient (R^2) values exceeded 0.999, indicating high linearity.
For sample preparation, 100 μL of plasma was mixed with 10 μL of internal standard (IS) and 900 μL of acetonitrile, followed by vortexing for 2 min. The mixture was then centrifuged at 13,400 × g at 4°C for 10 min. The supernatant was filtered through a 0.22 μm organic membrane, and the resulting sample was analyzed using UPLC-MS/MS.
Cats were divided into seven groups, with six cats in each group. In the intravenous (i.v.) group (Group 1), cats received an injection of KPT-335 at a dosage of 1 mg/kg body weight (BW), administered via a bolus through a venous infusion needle. For the oral (p.o.) administration, cats were given capsules in a fasting state at doses of 0.2 mg/kg BW (Group 2), 1 mg/kg BW (Group 3), and 2 mg/kg BW (Group 4). Additionally, tablets were administered at 1 mg/kg BW (fasting, Group 5), 1 mg/kg BW (Group 6), and 2 mg/kg BW (Group 7) in a feeding state, followed by 3 mL of water delivered with a syringe.
For the p.o. administration, blood samples of 1.5 mL were collected via the brachial cephalic vein prior to administration and at 0.167, 0.333, 0.5, 0.75, 1, 1.5, 2, 4, 6, 8, 12, 24, 32, and 48 h post-administration. […]

[1] = cats, i.v., Injection, 1 mg/kg BW
[2] = cats, p.o., Capsule, Fasting, 0.2 mg/kg BW
[3] = cats, p.o., Capsule, Fasting, 1 mg/kg BW
[4] = cats, p.o., Capsule, Fasting, 2 mg/kg BW
[5] = cats, p.o., Tablet, Fasting, 1 mg/kg BW
[6] = cats, p.o., Tablet, Feeding, 1 mg/kg BW

O=C(/C=C\n1cnc(-c2cc(C(F)(F)F)cc(C(F)(F)F)c2)n1)NNc1ccccn1 [KPT-335]
Plasma concentration (cats, i.v. 1 mg/kg BW, 1 h, 1 mg/kg, in ng/mL): 643.90 and 242.31 and 664.36 and 555.75 and 518.04 and 558.85
Plasma concentration (cats, i.v. 1 mg/kg BW, 2 h, 1 mg/kg, in ng/mL): 490.02 and 194.67 and 604.45 and 427.47 and 433.50 and 495.92
Plasma concentration (cats, i.v. 1 mg/kg BW, 4 h, 1 mg/kg, in ng/mL): 278.69 and 140.14 and 326.77 and 250.68 and 245.55 and 286.46
Plasma concentration (cats, i.v. 1 mg/kg BW, 8 h, 1 mg/kg, in ng/mL): 92.64 and 60.90 and 157.56 and 64.79 and 88.37 and 110.98
Plasma concentration (cats, i.v. 1 mg/kg BW, 12 h, 1 mg/kg, in ng/mL): 91.54 and 31.99 and 27.73 and 24.10 and 36.17 and 25.48
Plasma concentration (cats, i.v. 1 mg/kg BW, 24 h, 1 mg/kg): 2.04 ng/mL and 1.82 ng/mL
Plasma concentration (cats, i.v. 1 mg/kg BW, 24 h, 1 mg/kg, in ng/mL): 11.88 and 15.46 and 18.84 and 11.18
Plasma concentration (cats, i.v. 1 mg/kg BW, 32 h, 1 mg/kg): 2.52 and 2.36 and 9.45 and 1.34 and 8.61 and BLOQ
Plasma concentration (cats, i.v. 1 mg/kg BW, 48 h): BLOQ
AUC_%Extrap_obs [1]: 0.83 ± 0.69%
HL_Lambda_z [1]: 3.93 ± 0.84 h
reduction of absolute bioavailability when dosage is increased to 2 mg/kg BW (cats, p.o.): 15–25%
AUC_%Extrap_obs [2]: 7.53 ± 7.79%
HL_Lambda_z [2]: 7.04 ± 3.26 h
AUC_%Extrap_obs [3]: 0.47 ± 0.13%
HL_Lambda_z [3]: 5.37 ± 1.01 h
AUC_%Extrap_obs [4]: 0.75 ± 0.38%
HL_Lambda_z [4]: 6.78 ± 0.97 h
AUC_%Extrap_obs [5]: 0.82 ± 0.39%
HL_Lambda_z [5]: 5.76 ± 1.16 h
AUC_%Extrap_obs [6]: 0.92 ± 1.43%
HL_Lambda_z [6]: 4.20 ± 1.26 h
AUC_%Extrap_obs (cats, p.o., Tablet, Feeding, 2 mg/kg BW): 0.39 ± 0.24%
HL_Lambda_z (cats, p.o., Tablet, Feeding, 2 mg/kg BW, 2 mg/kg): 3.54 h and 3.54 ± 0.81 h
impact of feeding on the AUC (cats, tablet 1 mg/kg BW fasting vs feeding): minimal to no impact
Plasma concentration (cats, tablet p.o. 1 mg/kg BW after fasting, 48 h, 1 mg/kg): BLOQ
Plasma concentration (cats, tablet p.o. 1 mg/kg BW after feeding, 24 h, 1 mg/kg): BLOQ
Plasma concentration (cats, tablet p.o. 1 mg/kg BW after feeding, 32 h, 1 mg/kg): BLOQ
Plasma concentration (cats, tablet p.o. 1 mg/kg BW after feeding, 48 h, 1 mg/kg): BLOQ
Plasma concentration (cats, tablet p.o. 2 mg/kg BW after feeding, 32 h, 2 mg/kg): BLOQ
Plasma concentration (cats, tablet p.o. 2 mg/kg BW after feeding, 48 h): BLOQ
AUC(0-t) (female, iv, 1 mg/kg, female cats, i.v., Injection, 1 mg/kg BW, read-out: AUClast Value females): 3060 ± 193 ng·h/mL
Cmax (female, iv, 1 mg/kg, female cats, i.v., Injection, 1 mg/kg BW, read-out: Cmax Value females): 886 ± 54 ng/mL
AUC(0-t) (female, po, 0.2 mg/kg, female cats, p.o., Capsule, Fasting, 0.2 mg/kg BW, read-out: AUClast Value females): 244 ± 23.4 ng·h/mL
Cmax (female, po, 0.2 mg/kg, female cats, p.o., Capsule, Fasting, 0.2 mg/kg BW, read-out: Cmax Value females): 31.1 ± 11.2 ng/mL
AUC(0-t) (female, po, 1 mg/kg, female cats, p.o., Capsule, Fasting, 1 mg/kg BW, read-out: AUClast Value females): 1490 ± 292 ng·h/mL
Cmax (female, po, 1 mg/kg, female cats, p.o., Capsule, Fasting, 1 mg/kg BW, read-out: Cmax Value females): 284 ± 95.8 ng/mL
AUC(0-t) (female, po, 1 mg/kg, female cats, p.o., Tablet, Fasting, 1 mg/kg BW, read-out: AUClast Value females): 2480 ± 1160 ng·h/mL
Cmax (female, po, 1 mg/kg, female cats, p.o., Tablet, Fasting, 1 mg/kg BW, read-out: Cmax Value females): 220 ± 48.4 ng/mL
AUC(0-t) (female, po, 1 mg/kg, female cats, p.o., Tablet, Feeding, 1 mg/kg BW, read-out: AUClast Value females): 2660 ± 1870 ng·h/mL
Cmax (female, po, 1 mg/kg, female cats, p.o., Tablet, Feeding, 1 mg/kg BW, read-out: Cmax Value females): 467 ± 139 ng/mL
AUC(0-t) (female, po, 2 mg/kg, female cats, p.o., Capsule, Fasting, 2 mg/kg BW, read-out: AUClast Value females): 1830 ± 39.6 ng·h/mL
Cmax (female, po, 2 mg/kg, female cats, p.o., Capsule, Fasting, 2 mg/kg BW, read-out: Cmax Value females): 233 ± 52.4 ng/mL
AUC(0-t) (female, po, 2 mg/kg, female cats, p.o., Tablet, Feeding, 2 mg/kg BW, read-out: AUClast Value females): 2840 ± 1090 ng·h/mL
Cmax (female, po, 2 mg/kg, female cats, p.o., Tablet, Feeding, 2 mg/kg BW, read-out: Cmax Value females): 538 ± 150 ng/mL
AUC(0-t) (male, iv, 1 mg/kg, male cats, i.v., Injection, 1 mg/kg BW, read-out: AUClast Value males): 3290 ± 1300 ng·h/mL
Cmax (male, iv, 1 mg/kg, male cats, i.v., Injection, 1 mg/kg BW, read-out: Cmax Value males): 816 ± 443 ng/mL
AUC(0-t) (male, po, 0.2 mg/kg, male cats, p.o., Capsule, Fasting, 0.2 mg/kg BW, read-out: AUClast Value males): 312 ± 241 ng·h/mL
Cmax (male, po, 0.2 mg/kg, male cats, p.o., Capsule, Fasting, 0.2 mg/kg BW, read-out: Cmax Value males): 24.1 ± 6.3 ng/mL
AUC(0-t) (male, po, 1 mg/kg, male cats, p.o., Capsule, Fasting, 1 mg/kg BW, read-out: AUClast Value males): 1340 ± 704 ng·h/mL
Cmax (male, po, 1 mg/kg, male cats, p.o., Capsule, Fasting, 1 mg/kg BW, read-out: Cmax Value males): 237 ± 56.7 ng/mL
AUC(0-t) (male, po, 1 mg/kg, male cats, p.o., Tablet, Fasting, 1 mg/kg BW, read-out: AUClast Value males): 2340 ± 453 ng·h/mL
Cmax (male, po, 1 mg/kg, male cats, p.o., Tablet, Fasting, 1 mg/kg BW, read-out: Cmax Value males): 307 ± 183 ng/mL
AUC(0-t) (male, po, 1 mg/kg, male cats, p.o., Tablet, Feeding, 1 mg/kg BW, read-out: AUClast Value males): 1850 ± 11.1 ng·h/mL
Cmax (male, po, 1 mg/kg, male cats, p.o., Tablet, Feeding, 1 mg/kg BW, read-out: Cmax Value males): 261 ± 38.3 ng/mL
AUC(0-t) (male, po, 2 mg/kg, male cats, p.o., Capsule, Fasting, 2 mg/kg BW, read-out: AUClast Value males): 1850 ± 1290 ng·h/mL
Cmax (male, po, 2 mg/kg, male cats, p.o., Capsule, Fasting, 2 mg/kg BW, read-out: Cmax Value males): 328 ± 259 ng/mL
AUC(0-t) (male, po, 2 mg/kg, male cats, p.o., Tablet, Feeding, 2 mg/kg BW, read-out: AUClast Value males): 3160 ± 107 ng·h/mL
Cmax (male, po, 2 mg/kg, male cats, p.o., Tablet, Feeding, 2 mg/kg BW, read-out: Cmax Value males): 580 ± 56 ng/mL
